Laboratory results from PubChem BioAssay AID248 (DTP/NCI, 2004).
Where “and” joins values, the source holds several entries; their conditions need not be identical. Equal entries are not always repeated. Toxic doses and inconclusive results are not listed. Cut-off read from the data, not from the text of the source: active = T/C of 150% or more; inactive = T/C below 125%.

Tested on: L1210 leukemia ip in BDF1 mice, survival T/C
Assay: NCI In Vivo Anticancer Drug Screen. Data for tumor model L1210 Leukemia (intraperitoneal) in B6D2F1 (BDF1) mice
Settings: endpoint: mean survival time, higher = longer survival
Outline: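 Each compound was tested against a transplantable tumor grown in mice. The endpoint was survival, with treated animals benchmarked against vehicle controls as a simple ratio.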

[1] = dose: 100.0 mg/kg/injection, schedule: Q01DX009 (ip), vehicle: Klucel (hydroxypropylcellulose) (HPC)
[2] = dose: 100.0 mg/kg/injection, schedule: Q04DX003 (ip), vehicle: Klucel (hydroxypropylcellulose) (HPC)
[3] = dose: 200.0 mg/kg/injection, schedule: Q01DX009 (ip), vehicle: Klucel (hydroxypropylcellulose) (HPC)
[4] = dose: 400.0 mg/kg/injection, schedule: Q01DX009 (ip), vehicle: Klucel (hydroxypropylcellulose) (HPC)
[5] = dose: 100.0 mg/kg/injection, schedule: Q01DX009 (ip), vehicle: saline with Tween-80
[6] = dose: 200.0 mg/kg/injection, schedule: Q01DX009 (ip), vehicle: saline with Tween-80
[7] = dose: 100.0 mg/kg/injection, schedule: Q04DX002 (ip), vehicle: Klucel (hydroxypropylcellulose) (HPC)
[8] = dose: 200.0 mg/kg/injection, schedule: Q04DX002 (ip), vehicle: Klucel (hydroxypropylcellulose) (HPC)
[9] = dose: 100.0 mg/kg/injection, schedule: Q01DX009 (ip), vehicle: saline
[10] = dose: 200.0 mg/kg/injection, schedule: Q01DX009 (ip), vehicle: saline

Measured: T/C

CCOC1=NC(C)(C)CC(C)O1 (stereo not given)
inactive: dose: 25.0 mg/kg/injection, schedule: Q04DX003 (ip), vehicle: saline with Tween-80 95 % of control | dose: 50.0 mg/kg/injection, schedule: Q04DX003 (ip), vehicle: saline with Tween-80 101 % of control | dose: 100.0 mg/kg/injection, schedule: Q04DX003 (ip), vehicle: saline with Tween-80 102 % of control

COc1ccc(C2CCc3cc4c(cc3/C2=N/OC(C)=O)OCO4)cc1OC (stereo not given)
inactive: [1] 105 % of control | [2] 102 % of control | [3] 97 % of control | dose: 200.0 mg/kg/injection, schedule: Q04DX003 (ip), vehicle: Klucel (hydroxypropylcellulose) (HPC) 101 % of control | [4] 92 % of control | dose: 400.0 mg/kg/injection, schedule: Q04DX003 (ip), vehicle: Klucel (hydroxypropylcellulose) (HPC) 101 % of control

O=C(N/N=C/c1cccc([N+](=O)[O-])c1)c1ccccc1Cl
inactive: dose: 50.0 mg/kg/injection, schedule: Q01DX009 (ip), vehicle: saline with Tween-80 98 % of control | [5] 107 % of control | [6] 102 % of control

NC(=O)Nc1nc(-c2ccccc2)cc(-c2ccccc2O)n1
inactive: [7] 91 % of control | [8] 91 % of control | dose: 400.0 mg/kg/injection, schedule: Q04DX002 (ip), vehicle: Klucel (hydroxypropylcellulose) (HPC) 102 % of control

O=C(O)/C=C/c1ccc(Cl)cc1
inactive: dose: 100.0 mg/kg/injection, schedule: Q04DX002 (ip), vehicle: gum acacia 107 % of control | dose: 200.0 mg/kg/injection, schedule: Q04DX002 (ip), vehicle: gum acacia 95 % of control | dose: 400.0 mg/kg/injection, schedule: Q04DX002 (ip), vehicle: gum acacia 107 % of control

O=C(c1cccc2ccccc12)N(c1ccccc1)c1ccccc1
inactive: [2] 103 % of control

CCCOC(CN)C(Cl)(Cl)Cl (stereo not given)
inactive: dose: 50.0 mg/kg/injection, schedule: Q01DX009 (ip), vehicle: saline 98 % of control | [9] 96 % of control | dose: 100.0 mg/kg/injection, schedule: Q04DX003 (ip), vehicle: saline 97 % of control | [10] 96 % of control | dose: 200.0 mg/kg/injection, schedule: Q04DX003 (ip), vehicle: saline 92 % of control

O=C(NC1CCCCC1)C1COc2ccccc2O1 (stereo not given)
inactive: dose: 100.0 mg/kg/injection, schedule: Q01DX001 (ip), vehicle: Klucel (hydroxypropylcellulose) (HPC) 98 % of control | [1] 95 % of control | dose: 200.0 mg/kg/injection, schedule: Q01DX001 (ip), vehicle: Klucel (hydroxypropylcellulose) (HPC) 108 % of control | [3] 93 % of control | dose: 400.0 mg/kg/injection, schedule: Q01DX001 (ip), vehicle: Klucel (hydroxypropylcellulose) (HPC) 98 % of control | [4] 97 % of control

CC[CH2][Pb]([Cl])([CH2]CC)[CH2]CC
inactive: dose: 12.5 mg/kg/injection, schedule: Q04DX003 (ip), vehicle: Klucel (hydroxypropylcellulose) (HPC) 106 % of control | dose: 25.0 mg/kg/injection, schedule: Q04DX003 (ip), vehicle: Klucel (hydroxypropylcellulose) (HPC) 95 % of control | dose: 50.0 mg/kg/injection, schedule: Q04DX003 (ip), vehicle: Klucel (hydroxypropylcellulose) (HPC) 90 % of control

CC1COC(C(F)(F)Cl)(C(F)(F)Cl)O1 (stereo not given)
inactive: [9] 93 % of control and 97 % of control | dose: 100.0 mg/kg/injection, schedule: Q04DX002 (ip), vehicle: saline 96 % of control and 101 % of control | [10] 94 % of control and 92 % of control | dose: 200.0 mg/kg/injection, schedule: Q04DX002 (ip), vehicle: saline 96 % of control and 103 % of control | dose: 400.0 mg/kg/injection, schedule: Q01DX009 (ip), vehicle: saline 93 % of control and 105 % of control | dose: 400.0 mg/kg/injection, schedule: Q04DX002 (ip), vehicle: saline 100 % of control and 105 % of control

FC(F)(F)c1cccc(NC(=S)Nc2ccccc2S)c1
inactive: [5] 103 % of control | dose: 100.0 mg/kg/injection, schedule: Q04DX002 (ip), vehicle: saline with Tween-80 93 % of control | [6] 98 % of control | dose: 200.0 mg/kg/injection, schedule: Q04DX002 (ip), vehicle: saline with Tween-80 96 % of control | dose: 400.0 mg/kg/injection, schedule: Q01DX009 (ip), vehicle: saline with Tween-80 124 % of control | dose: 400.0 mg/kg/injection, schedule: Q04DX002 (ip), vehicle: saline with Tween-80 101 % of control

OC1CCCC[CH]1[Hg][Cl] (stereo not given)
inactive: dose: 5.0 mg/kg/injection, schedule: Q01DX001 (ip), vehicle: saline 95 % of control

Nc1nc2nc[nH]c2c(Cl)c1Br
inactive: [7] 104 % of control | [8] 115 % of control

N#Cc1cccn1O
inactive: dose: 37.5 mg/kg/injection, schedule: Q01DX009 (ip), vehicle: Klucel (hydroxypropylcellulose) (HPC) 104 % of control | dose: 75.0 mg/kg/injection, schedule: Q01DX009 (ip), vehicle: Klucel (hydroxypropylcellulose) (HPC) 100 % of control | dose: 150.0 mg/kg/injection, schedule: Q01DX009 (ip), vehicle: Klucel (hydroxypropylcellulose) (HPC) 108 % of control

CNCC(N)=O
inactive: dose: 50.0 mg/kg/injection, schedule: Q01DX001 (ip), vehicle: carboxymethylcellulose (CMC) 108 % of control | dose: 100.0 mg/kg/injection, schedule: Q01DX001 (ip), vehicle: carboxymethylcellulose (CMC) 105 % of control | dose: 200.0 mg/kg/injection, schedule: Q01DX001 (ip), vehicle: carboxymethylcellulose (CMC) 98 % of control | dose: 400.0 mg/kg/injection, schedule: Q01DX001 (ip), vehicle: carboxymethylcellulose (CMC) 95 % of control
